Key:
[1] = tested on: HUVEC cells; test: Growth of endothelial-derived primary cells (HUVEC); format: cell-based, human; conditions: within effective concentration range observed in VCaP, data not shown
Procedure: (§1) TMPRSS2-ERG fusion positive ERG oncoprotein expressing prostate cancer cell line VCaP, was obtained from the American Tissue Culture Collection (ATCC; Manassas, Va.). The cells were grown in ATCC-recommended cell culture media under cell growth promoting conditions as recommended by the supplier (DMEM media; Gibco, Grand island, NY) supplemented with 10% fetal bovine serum (ATCC; Manassas, Va.). Normal primary endothelial cells, HUVEC-human umbilical vein endothelial cells, were also obtained from ATCC (Endothelial cell media; Cell biologics, Chicago, Ill.) supplemented with 10% FBS) as recommended by the supplier. The passage number of cell lines used in this study ranges from 1 to 6.
(§2) ERG protein is naturally expressed in endothelial cells.

[2] = target: T1, RIOK2 (Homo sapiens, UniProt Q9BVS4); test: RIOK2 levels in endothelial-derived primary cells (HUVEC); format: cell-based; conditions: within effective concentration range observed in VCaP, data not shown
T1 construct: endogenous in cells; host or cells: HUVEC primary endothelial cells (ATCC)
T1 sequence (Q9BVS4 whole entry): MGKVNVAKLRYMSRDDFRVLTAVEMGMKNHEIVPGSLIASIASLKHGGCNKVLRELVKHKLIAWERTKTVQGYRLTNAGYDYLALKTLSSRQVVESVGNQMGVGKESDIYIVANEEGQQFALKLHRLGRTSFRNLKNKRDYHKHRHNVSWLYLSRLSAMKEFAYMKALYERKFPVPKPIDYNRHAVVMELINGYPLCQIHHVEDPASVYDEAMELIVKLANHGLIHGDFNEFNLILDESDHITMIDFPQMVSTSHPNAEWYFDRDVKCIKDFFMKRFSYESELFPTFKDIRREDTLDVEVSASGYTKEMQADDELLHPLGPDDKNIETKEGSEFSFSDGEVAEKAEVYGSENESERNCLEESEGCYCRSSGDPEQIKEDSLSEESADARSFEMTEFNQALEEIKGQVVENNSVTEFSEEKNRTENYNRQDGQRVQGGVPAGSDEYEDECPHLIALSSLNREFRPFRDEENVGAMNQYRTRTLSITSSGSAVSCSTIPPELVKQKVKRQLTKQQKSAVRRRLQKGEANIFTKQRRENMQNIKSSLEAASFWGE
Procedure: as §1, §2

[3] = tested on: VCaP cells; test: VCaP cell growth inhibition / cell viability (Cell Titer-Glo); format: cell-based; conditions: Homo sapiens, 96 h
Procedure: TMPRSS2-ERG fusion positive ERG oncoprotein expressing prostate cancer cell line VCaP, was obtained from the American Tissue Culture Collection (ATCC; Manassas, Va.). The cells were grown in ATCC-recommended cell culture media under cell growth promoting conditions as recommended by the supplier (DMEM media; Gibco, Grand island, NY) supplemented with 10% fetal bovine serum (ATCC; Manassas, Va.). […] The passage number of cell lines used in this study ranges from 1 to 6.
48 hours following plating of cells, the appropriate test compound is added to each well of the tissue culture dish at concentrations (0, 0.001, 0.005, 0.01, 0.05, 0.10, 0.15, 0.2, 0.25, 0.3, 0.35, 0.4) μM/per well). The medium was replenished every 24 hours with fresh growth medium containing the same concentration of the same test compound for indicated period of the cell growth inhibition assay for 96 hours. At the end of the treatment the cells were analyzed for viability by labeling for ATPase activity. Cell growth were calculated by measuring bioluminescence using Cell Glow ATPase assay with Cell Titer-Glo luminescent cell viability assay (Promega, Madison, Wis.) detected by the HT Envision System (PerkinElmer, Waltham, Mass.). The average viable cell numbers of each concentration in triplicates were used to calculate the IC50 of each compound with the GraphPad Prism 7 software. […]

effect on RIOK2 levels of endothelial-derived primary cells [2]: did not effect | IC50 [3]: 89 nM
Compound: CN(C)c1ccc(N=Nc2ccccn2)c(O)c1.CS(=O)(=O)O [Compound 2, 5-(dimethylamino)-2-(pyridin-2-yldiazenyl)phenol, methanesulfonic acid (1:1)]
effect on growth of endothelial-derived primary cells [1]: did not effect
